Assay results as given in patent US20140045908A1, “HSP90 INHIBITORY COMPOUNDS IN TREATING JAK/STAT SIGNALING-MEDIATED CANCERS” (SYNTA PHARMACEUTICALS CORP., priority 2011, published 2014).
pIC50: −log10 of the molar value.

Legend:
Type in all cases: cell-based, human
[1] = tested on: JAK/STAT signaling in SET-2 cells; test: Western blot of JAK/STAT signaling in SET-2 cells; conditions: 24 h
Method: SET-2 cells were dosed with the indicated concentrations of ganetespib or 17-AAG for 24 h and analyzed to determine JAK/STAT protein and target levels using the antibodies indicated.
(§1) Cells were disrupted in lysis buffer (CST) and solubilized in 2% SDS. Xenograft tumors (average volume of 100-200 mm3) were excised, cut in half, and flash frozen in liquid nitrogen. Each tumor fragment was lysed in 0.5 mL of lysis buffer using a FastPrep-24 homogenizer and Lysing Matrix A (MP Biomedicals, Solon, Ohio, USA) and lysates clarified by centrifugation. Equal amounts of proteins were resolved by SDS-PAGE and immunoblotted with indicated antibodies. The antigen-antibody complex was visualized and quantitated using an Odyssey system (LI-COR, Lincoln, Nebr., USA).

[2] = tested on: Cdk1, phospho-Chk2, cyclins in HEL92.1.7 cells; test: Western blot of cell cycle proteins in HEL92.1.7 cells; conditions: ganetespib 250 nM or P6 1000 nM, 24-48 h
Method: Cells were harvested at the indicated time points and the levels of total and phospho-Cdk1, phospho-Chk2 and GAPDH analyzed by western blot.
FIG. 12 illustrates the effects of ganetespib on JAK/STAT and cell cycle protein expression. HEL92.1.7 cells were treated with 100 nM ganetespib and subject to western blot to determine the levels of Cdk1, cyclin B1, cyclin A1, JAK2, total and phospho-STAT3, and GAPDH at hourly intervals over an 11 h time course.
as §1

[3] = tested on: JAK2 dependent signaling in HEL92.1.7 cells; test: Western blot of JAK/STAT signaling in HEL92.1.7 cells; conditions: 250 nM ganetespib or 1000 nM P6
Method: FIG. 2 compares the more durable ganetespib durable inhibition of JAK/STAT signaling to P6. HEL92.1.7 cells were cultured in the presence of 250 nM Ganetespib or 1000 nM P6 and harvested at the indicated time points. The levels of JAK2, phosphorylated and total STAT3 and STAT5, phospho-AKT, phospho-ERK and GAPDH were determined by western blot.
as §1

[4] = tested on: HEL92.1.7 cells; test: Cell viability assay (AlamarBlue, 72 h)
Method: All cell lines were obtained from the ATCC (Rockville, Md., USA), with the exception of SET-2 cells which were purchased from the German Collection of Microorganisms and Cell Cultures (DSMZ, Germany). Cells were maintained and cultured according to standard techniques at 37° C. in 5% (v/v) CO2 using culture medium recommended by the supplier.
Cells were grown in 96-well plates based on optimal growth rates determined empirically for each line. Twenty-four hours after plating, cells were dosed with the indicated compound or DMSO (0.3%) for 72 h. AlamarBlue (Invitrogen, Carlsbad, Calif., USA) was added (10% v/v) to the cells, and the plates were incubated for 3 h and subjected to fluorescence detection (Ex=545 nm, Em=600 nm) in a SpectraMax Plus 384 microplate reader (Molecular Devices, Sunnyvale, Calif., USA). Data are normalized to percent of control, with IC50 values based on a four-parameter logistic dose response curve (model 205) using XLfit version 5.1 from IDBS (Guildford, U.K.).

[5] = tested on: JAK/STAT target and cell cycle gene expression in HEL92.1.7 cells; test: RNA expression profiling (RT-PCR, Affymetrix) in HEL92.1.7 cells; conditions: 4 hour P6 (1000 nM), 24 hour ganetespib (250 nM)
Method: HEL92.1.7 cells were treated with DMSO, P6 (100 or 1000 nM) or ganetespib (25 or 250 nM) for 4 h or 24 h, and total RNA extracted using Trizol (Invitrogen). RNA was purified with the RNeasy kit (Qiagen, Hilden, Germany) and converted to cDNA via an iScript kit (BioRad, Hercules, Calif., USA). Oligonucleotide primers were purchased from SABiosciences (Frederick, Md., USA). PCR was done with iQ SYBR Green Supermix (Bio-Rad), and levels of the tested genes were normalized to HPRT expression using the comparative Ct method.
Biotinylated aRNA was generated by in vitro transcription using Affymetrix GeneChip Expression IVT labeling kit (Affymetrix, Santa Clara, Calif., USA). Fifteen micrograms of labeled aRNA was fragmented and hybridized to Affymetrix GeneChip Human Genome U133 Plus 2 arrays and scanned using a GeneChip Scanner (Affymetrix). Array data were analyzed with the Affymetrix Expression Console Software utilizing the MASS algorithm. In order to generate a threshold for identifying probe sets that have large differences between 1000 nM P6 (4 h) and 250 nM ganetespib (24 h) arrays and their controls in the absence of treatment replicates, data from four control arrays (DMSO only; two at 4 h, and two at 24 h) were used to create an expression level dependent fold-difference envelope that reflects the increasing measurement variability as expression level decreases. This envelope, used in lieu of a fixed fold-difference criteria, was formed by identifying the xth percentile expression-level difference (where x was large, typically 99.9%) at each mean expression level bin. To achieve this, data were used from the six possible comparisons from the four DMSO-only arrays. The resulting, smoothed threshold fold-difference envelope was then applied to the two compound-treated/control array pairs to identify those probe-sets that have large expression level differences between treatment and control. For hierarchical analysis, genes with greater than two fold changes in expression with 250 nM ganetespib were clustered using established algorithms in Cluster (49) and a subset visualized by TreeView.

[6] = tested on: JAK2/STAT3 signaling in HCC827 cells; test: Western blot of constitutive and IL-6 induced STAT3 activity in HCC827 cells
Method: HCC827 lung cancer cells were treated with increasing concentrations of ganetespib or P6 for 24 h followed by a 15 min stimulation with or without 50 ng/ml human recombinant IL-6. The levels of JAK2, total and phospho-STAT3, and PIM2 were analyzed by western blot. GAPDH is included as a loading control.
as §1

[7] = tested on: HEL92.1.7 cells; test: Flow cytometry cell cycle analysis
Method: HEL92.1.7 cells were plated at 0.5×10^6 cells/mL and treated as indicated. Cells were harvested and stained with propidium iodide using the BD Cycle TEST PLUS Reagent Kit (BD Biosciences, San Jose, Calif., USA) according to the manufacturer's instructions. Twenty thousand cells were analyzed for their DNA content using a FACS Caliber cytometer (BD Biosciences).

[8] = 24 h, absence of external ligand

Row | SMILES | fold less potent than ganetespib, effects on JAK/STAT signaling [1] | Cdk1 protein expression [2] | JAK2 dependent signaling (phospho-STAT3, phospho-STAT5, ERK signaling) [3] | fold less potency than ganetespib, loss of cellular viability [4] | pIC50 ([4]; 72 h, Alamar blue, read-out: IC50, loss of cellular viability) | expression of JAK/STAT target genes (SOCS and PIM family members) [5] | JAK2 expression [6, 8] | constitutive STAT3 activity [6, 8] | JAK/STAT signaling stimulated by exogenous IL-6 ([6]; 24 h then 15 min 50 ng/ml IL-6) | cell cycle distribution [7]
1 | C=CCNC1=C2C[C@@H](C)C[C@H](OC)[C@H](O)[C@@H](C)/C=C(\C)[C@H](OC(N)=O)[C@@H](OC)/C=C\C=C(/C)C(=O)NC(=CC1=O)C2=O [17-AAG, reference compound] | 200 fold | – | – | – | – | – | – | – | – | –
2 | CC(C)(C)c1nc2c3cc[nH]c(=O)c3c3cc(F)ccc3c2[nH]1 [P6, reference compound] | – | no effect on Cdk1 expression | blocked JAK2 dependent signaling | 30 fold | 6.21 | downregulated | did not influence total JAK2 protein levels | downregulated constitutive STAT3 activity | blocked JAK/STAT signaling stimulation | accumulation in G1 phase only, without the loss of S phase or G2/M arrest
